# Measurements as given in article PMC8624998, “Synthesis and Antiproliferative Evaluation of 3-Chloroazetidin-2-ones with Antimitotic Activity: Heterocyclic Bridged Analogues of Combretastatin A-4” (Pharmaceuticals, 2021).
# Read-outs that look alike come from different tables or passages of the source. Marks after values point to notes of the source that are not given here.
# Key:
# [1] = system: MDA-MB-231 cells; assay: Cell viability assay, antiproliferative activity; format: cell-based; conditions: Homo sapiens; MDA-MB-231, 72 h; 10e and 11n results from NCI; read-out: Antiproliferative Activity IC50 MDA-MB-231, 72 h
# Source text: Selected β-lactam compounds were next evaluated in the triple negative cell line MDA-MB-231 (Table 4). […] These cancers are difficult to treat since they are generally not responsive to hormone therapies such as the selective oestrogen receptor modulator (SERM) tamoxifen, or aromatase inhibitors such as anastrozole, or to the monoclonal antibody Herceptin, which targets the HER2 receptor. There are fewer treatment options available for TNBC compared with ER+, PR+ and HER2+ breast cancers and the prognosis is poorer. […]. The human breast carcinoma cell line MCF-7 was purchased from the European Collection of Animal Cell Cultures (ECACC). Triple negative breast cancer Hs578T cells and its invasive variant Hs578Ts(i)8 were a kind gift from Dr. Susan McDonnell, School of Chemical and Bioprocess Engineering, University College Dublin. U266 cells were a gift from Dr. Tony McElligott, School of Medicine, St James’s Hospital, Trinity College Dublin. HT-29 cells were purchased from the European Collection of Cell Cultures (originating from a human adenocarcinoma of the colon). The human breast carcinoma cell line MDA-MB-231 and the HL-60 cells derived from a patient with acute myeloid leukaemia were both obtained from ECACC (Salisbury, UK). The SW-480 cells were a kind gift from Dr. Brian Flood, School of Biochemistry and Immunology, Trinity College Dublin. HEK-293T (normal epithelial embryonic kidney cells) were cultured in Dulbecco’s Modified Eagle’s Medium (DMEM) with GlutaMAXTM-I in the absence of non-essential amino acids. Human breast cancer MCF-7 cells and multiple myeloma U266 cells were cultured in Minimum Essential Media (MEM) with GlutaMAX™-I, supplemented with 1% (v/v) non-essential amino acids, 10% 2(v/v) foetal bovine serum (FBS) and 1% (v/v) penicillin/streptomycin 5000 U/mL. MDA-MB-231 cells were maintained in DMEM supplemented with 10% (v/v) foetal bovine serum, 2 mM L-glutamine and 100 μg/mL penicillin/streptomycin (complete medium). Colon cancer HT-29 and SW-480 and triple negative breast cancer Hs578T and its invasive variant Hs578T8i were cultured in DMEM with GlutaMAX™-I, with the same supplement in the absence of non-essential amino acids. Leukaemia HL-60 cancer cells were cultured in Roswell Park Memorial Institute Media (RPMI-1640) with GlutaMAX™-I, supplemented with 10% FCS media, and 100 μg/mL penicillin/streptomycin as above. Cell numbers were monitored using a haemocytometer. Cell culture flasks were incubated in a humidified incubator (5% CO2/95% air) at 37 °C. All cell lines were sub-cultured three times per week with trypsinisation using TrypLE Express (1X) required for adherent cell lines.
# (§1) . All stock solutions and serial dilution in ethanol/DMSO were stored at -20 °C. All cells were seeded at a density of 2.5 × 10^4 cells/mL in a 96-well plate (200 μL per well). The cells were incubated in a […] atmosphere at 37 °C for 24 h, then treated with test compound (2 μL of stock solutions per 200-microlitre well) in ethanol to obtain a concentration range of 1 nM–200 μM for the study. The plates were then re-incubated for a further 72 h. Control wells contained an equivalent volume of the vehicle ethanol or DMSO (1% v/v). MTT cell viability assay: The culture medium was removed, and the cells were washed with phosphate buffered saline (PBS, […]). MTT (dissolved in PBS, […]) was added to obtain a final concentration of MTT (1 mg/mL). Cells were incubated at 37 °C for 3 h in the dark. Solubilisation was commenced by the addition of DMSO ([…]) and the cells were maintained at 20 °C in the dark for 20 min before reading the absorbance to ensure complete colour diffusion. The absorbance value of control cells (no added compound) was set to 100% cell viability and absorbance versus cell density per well was determined to assess cell viability using Graph-Pad Prism software. […]
# [2] = system: MCF-7 cells; assay: Lactate dehydrogenase (LDH) assay for cytotoxicity; format: cell-based; conditions: Homo sapiens, MCF7; MCF-7, compound concentration 10 μM, 24 h; read-out: Lactate Dehydrogenase assay: % cell lysis (cell death)
# Protocol: The toxicity and selectivity of 10n towards normal cells was investigated in the non-tumourigenic cell line HEK-293T (normal human epithelial embryonic kidney cells). […] The cytotoxic effect of selected 3-chloro-β-lactams 10e, 10f, 10i, 10n and 3,3-dichloro-β-lactams 11e and 11n in MCF-7 cells was initially determined using the lactate dehydrogenase (LDH) assay.
# The cytotoxicity of selected compounds was determined using the CytoTox 96 non-radioactive cytotoxicity assay (Promega Corporation, Madison, WI, USA). Briefly, MCF-7 cells were seeded in a 96-well plate (200 μL per well), at a density of 2.5 × 10^4 cells/mL, and incubated for 24 h. The cells were then treated with selected β-lactam compounds as described above for the cell viability assay. […] Supernatant (50 μL) was removed from each well to a 96-well plate. Reconstituted ‘CytoTox 96® Reagent (50 μL) was added to each well and the plate was placed in the dark at 20 °C for 30 min. ‘Stop solution’ (50 μL) was added to each well and the samples were analysed at 490 nm using a Dynatech MR5000 plate reader. The percentage cell death at 10 μM was calculated.
# [3] = system: MCF-7 cells; conditions: MCF-7, 72 h, previously reported compounds, cited from earlier work
# [4] = system: MCF-7 cells; assay: Cell viability assay (MTT/AlamarBlue), antiproliferative activity; format: cell-based, human; conditions: MCF-7, 72 h; for IC50: read-out: IC50 (MCF-7, 72 h)
# Source text: […]. The introduction of the halogen substituent at C-3 was examined in an effort to investigate the effect on the activity of this substituent, and subsequently optimising the cytotoxic effects against MCF-7 human breast cancer cells.
# (§2) The human breast carcinoma cell line MCF-7 was purchased from the European Collection of Animal Cell Cultures (ECACC). Triple negative breast cancer Hs578T cells and its invasive variant Hs578Ts(i)8 were a kind gift from Dr. Susan McDonnell, School of Chemical and Bioprocess Engineering, University College Dublin. U266 cells were a gift from Dr. Tony McElligott, School of Medicine, St James’s Hospital, Trinity College Dublin. HT-29 cells were purchased from the European Collection of Cell Cultures (originating from a human adenocarcinoma of the colon). The human breast carcinoma cell line MDA-MB-231 and the HL-60 cells derived from a patient with acute myeloid leukaemia were both obtained from ECACC (Salisbury, UK). The SW-480 cells were a kind gift from Dr. Brian Flood, School of Biochemistry and Immunology, Trinity College Dublin. HEK-293T (normal epithelial embryonic kidney cells) were cultured in Dulbecco’s Modified Eagle’s Medium (DMEM) with GlutaMAXTM-I in the absence of non-essential amino acids. Human breast cancer MCF-7 cells and multiple myeloma U266 cells were cultured in Minimum Essential Media (MEM) with GlutaMAX™-I, supplemented with 1% (v/v) non-essential amino acids, 10% 2(v/v) foetal bovine serum (FBS) and 1% (v/v) penicillin/streptomycin 5000 U/mL. MDA-MB-231 cells were maintained in DMEM supplemented with 10% (v/v) foetal bovine serum, 2 mM L-glutamine and 100 μg/mL penicillin/streptomycin (complete medium). Colon cancer HT-29 and SW-480 and triple negative breast cancer Hs578T and its invasive variant Hs578T8i were cultured in DMEM with GlutaMAX™-I, with the same supplement in the absence of non-essential amino acids. Leukaemia HL-60 cancer cells were cultured in Roswell Park Memorial Institute Media (RPMI-1640) with GlutaMAX™-I, supplemented with 10% FCS media, and 100 μg/mL penicillin/streptomycin as above. Cell numbers were monitored using a haemocytometer. Cell culture flasks were incubated in a humidified incubator (5% CO2/95% air) at 37 °C. All cell lines were sub-cultured three times per week with trypsinisation using TrypLE Express (1X) required for adherent cell lines.
# as §1, with “software. AlamarBlue cell viability assay: Cells were seeded in 96-well plates (e.g., MCF-7, 5 × 10^3 cells/well) and (HT-29 cells, 1 × 10^3 cells/well) and (HL-60 cells, 1 × 10^4 cells/well) with a total volume per well of 200 µL. After 24 h, cells were treated in triplicate with serial dilutions of CA-4 or β-lactam analogues (0.001–100 μM), medium alone or vehicle (1% ethanol (v/v)).” for “software.”
# [5] = system: SW480 cells; assay: Cell viability assay, antiproliferative activity; format: cell-based, human; conditions: SW480, 10 μM
# Protocol: […]. The corresponding values for 10e in these cell lines were 161 nM (HL-60), 55 nM (SW480) and 135 nM (HT-29). […] […]. SW480 colon cells expressed low levels of the UDP-glucuronosyltransferase (UGT) protein compared to expression levels in HT-29 cells. […] […].
# as §2
# as §1, with “software. AlamarBlue cell viability assay: Cells were seeded in 96-well plates (e.g., MCF-7, 5 × 10^3 cells/well) and (HT-29 cells, 1 × 10^3 cells/well) and (HL-60 cells, 1 × 10^4 cells/well) with a total volume per well of 200 µL. After 24 h, cells were treated in triplicate with serial dilutions of CA-4 or β-lactam analogues (0.001–100 μM), medium alone or vehicle (1% ethanol (v/v)).” for “software.”
structure (smiles),measurement,setting,value
CCOc1ccc([C@H]2[C@H](Cl)C(=O)N2c2cc(OC)c(OC)c(OC)c2)cc1 (relative stereo) [Compound 10f],IC50,[1],0.078 ± 0.008 µM
same,cytotoxicity at 10 µM,[2],4%
same,IC50,[3]; footnote g,0.13 ± 0.017 µM
"COc1ccc(C(=O)c2cc(OC)c(OC)c(OC)c2)cc1O [Compound 3a, phenstatin, reference compound]",cytotoxicity at 10 µM,[2],12%
COc1cc(N2C(=O)C(Cl)C2c2ccc(SC)cc2)cc(OC)c1OC (stereo not shown) [Compound 10i],cytotoxicity at 10 µM,[2],3%
same,IC50,[3]; footnote g,0.073 ± 0.004 µM
"COc1cc(N2C(=O)C(Cl)C2c2cccc3ccccc23)cc(OC)c1OC (stereo not shown) [Compound 10j, 3-Chloro-1-(3,4,5-trimethoxyphenyl)-4-(naphthalen-1-yl)azetidin-2-one]",IC50,"[4]; Homo sapiens, MCF7, 72 h",14.7 ± 2.26 µM
same,cytotoxicity at 10 µM,[2],4%
"COc1cc(N2C(=O)C(Cl)C2c2ccc3ccccc3c2)cc(OC)c1OC (stereo not shown) [Compound 10k, 3-Chloro-1-(3,4,5-trimethoxyphenyl)-4-(naphthalen-2-yl)azetidin-2-one]",IC50,"[4]; Homo sapiens, MCF7, 72 h",0.2 µM
same,IC50,[4],0.202 ± 0.015 µM
same,IC50,[1],0.205 ± 0.034 µM
COc1ccc(C2C(Cl)C(=O)N2c2cc(OC)c(OC)c(OC)c2)cc1Cl (stereo not shown) [Compound 10o],IC50,[3]; footnote h,0.433 ± 0.05 µM
CCOc1ccc([C@@H]2N(c3cc(OC)c(OC)c(OC)c3)C(=O)C2(Cl)Cl)cc1 [Compound 11f],IC50,[1],0.389 ± 0.05 µM
same,IC50,[3]; footnote g,0.164 ± 0.015 µM
COc1cc(N2C(=O)C(Cl)(Cl)C2c2ccc(SC)cc2)cc(OC)c1OC (stereo not shown) [Compound 11i],IC50,[3]; footnote g,0.291 ± 0.03 µM
COc1ccc(C2N(c3cc(OC)c(OC)c(OC)c3)C(=O)C2(Cl)Cl)cc1C (stereo not shown) [Compound 11o],IC50,[3]; footnote h,0.747 ± 0.06 µM
"CCOc1ccc(N2C(=O)C(Cl)(Cl)C2c2cc(OC)c(OC)c(OC)c2)cc1 (stereo not shown) [Compound 13b, 3,3-Dichloro-1-(4-ethoxyphenyl)-4-(3,4,5-trimethoxyphenyl)azetidin-2-one]",inhibition of cell viability at a concentration of 10 μM,[4],40% (10 μM)^c
same,melting point,,133 to 134 °C
"COc1cc(C2N(c3ccc(SC)cc3)C(=O)C2(Cl)Cl)cc(OC)c1OC (stereo not shown) [Compound 13c, 3,3-Dichloro-1-(4-(methylthio)phenyl)-4-(3,4,5-trimethoxyphenyl) azetidin-2-one]",inhibition of cell viability at a concentration of 10 μM,[4],20% (10 μM)^c
same,melting point,,117 to 119 °C
"COc1ccc(C2C(Cl)C(=O)N2c2cc(OC)cc(OC)c2)cc1 (stereo not shown) [Compound 14a, 3-Chloro-1-(3,5-dimethoxyphenyl)-4-(4-methoxyphenyl)azetidin-2-one]",IC50,"[4]; Homo sapiens, MCF7, 72 h",0.68 ± 0.16 µM
same,melting point,,93 to 94 °C
"CCOc1ccc(C2C(Cl)C(=O)N2c2cc(OC)cc(OC)c2)cc1 (stereo not shown) [Compound 14b, 3-Chloro-1-(3,5-dimethoxyphenyl)-4-(4-ethoxyphenyl)azetidin-2-one]",IC50,"[4]; Homo sapiens, MCF7, 72 h",0.045 ± 0.01 µM
same,melting point,,129 to 130 °C
"CCOc1ccc(C2C(Br)C(=O)N2c2cc(OC)c(OC)c(OC)c2)cc1 (stereo not shown) [Compound 16b, 3-Bromo-4-(4-ethoxyphenyl)-1-(3,4,5-trimethoxyphenyl)azetidin-2-one]",IC50,"[4]; Homo sapiens, MCF7, 72 h",1.14 ± 0.3 µM
same,SW480 inhibition of cell viability,[5],50%
"COc1ccc(C2C(Br)C(=O)N2c2cc(OC)c(OC)c(OC)c2)cc1O (stereo not shown) [Compound 16j, 3-Bromo-4-(3-hydroxy-4-methoxyphenyl)-1-(3,4,5-trimethoxyphenyl) azetidin-2-one]",inhibition of cell viability at a concentration of 10 μM,[4],"40% (10 μM) ^c,i"
same,SW480 inhibition of cell viability,[5],48%
